Values joined by “and” are separate entries in the source; they are usually repeats but may differ in a detail not shown here. Equal values may be shown once.
Tested on: cells in the liver
Test: In vivo screening of LNPs comprising fLuciferase mRNA, bioluminescent imaging (BLI)
Design: species or system BALB/C mice
Details: 0.5 mg/kg fLuciferase mRNA intravenously, BLI at 4 hr
Protocol: To formulate the LNPs, various percentages of one of COMPOUNDS 3, 6, or 12, the phospholipid (DOPE or DOPC), the structural lipid cholesterol (Chol) and 1,2-dimyristoyl-sn-glycerol methoxypolyethylene glycol (DMG-PEG2000; Avanti Polar Lipids, Alabaster, Alabama, USA) were combined to prepare LNP compositions.
Individual 25 mg/ml stock solutions were prepared by solubilizing the lipids in 200-proof HPLC-grade ethanol and stock solutions were stored at −80° C. until formulated. At the time of formulation, the lipid stock solutions were briefly allowed to equilibrate to room temp and then placed on a hot plate maintained at a temperature range of 50-55° C. Subsequently, the hot lipid stock solutions were combined to yield desired final mole percentages.
A 1 mg/ml solution of the 5′-CleanCap-fLuciferase mRNA (TriLink Biotech) to be incorporated into the LNPs was added to 150 mM sodium acetate buffer (pH 5.2) to form a stock solution and kept on ice. The lipid phase was mixed with the aqueous mRNA phase inside a microfluidic chip using a NanoAssemblr® instrument (Precision Nanosystems, Vancouver, BC, Canada) according to the manufacturer's instructions to form LNP compositions comprising encapsulated mRNAs.
The resultant mRNA LNP compositions were then transferred to a Repligen Float-A-Lyzer dialysis device—having a molecular weight cut off (MWCO) of 8-10 kDa (Spectrum Chemical Mfg. Corp, CA, USA) and processed by dialysis against phosphate buffered saline (PBS) (dialysate:dialysis buffer volume at least 1:200 v/v), pH 7.4 overnight at 4° C. (or alternatively room temperature for at least 4 hours), to remove the 25% ethanol and achieve a complete buffer exchange. […]
The location and extent of luciferase expression in treated and control mice were determined at 4 hr by bioluminescent imaging (BLI) of anesthetized mice using an IVIS Lumina in vivo imaging system (Perkin Elmer) according to the manufacturer's instructions. […]

Structure (SMILES): CCCCCCCCCCC(CN(CCCN(C)CCCN(CC(CCCCCCCCCC)SSCCO)CC(CCCCCCCCCC)SSCCO)CC(CCCCCCCCCC)SSCCO)SSCCO (stereo not drawn) [Compound 3]
- Mean Liver Luciferase Flux (LNP with 33.5% moles compound, 32% DOPE, 33.5% Chol, 1% PEG-DMG, lipid:RNA 40 w/w): 2.72E+08 p/s
- Mean Liver Luciferase Flux (LNP with 43.3% moles compound, 12% DOPC, 43.3% Chol, 1.5% PEG-DMG, lipid:RNA 100 w/w): 6.49E+10 p/s
- Mean Liver Luciferase Flux (LNP with 54% moles compound, 10% DOPC, 35% Chol, 1% PEG-DMG, lipid:RNA 100 w/w, 0.5 mg/kg): 1.94E+11 p/s and 1.16E+11 p/s
